Results reported in patent US20250263799A1, “METHODS OF TREATING CANCER USING REPLICATION STRESS MODULATORS” (The Institute of Cancer Research: Royal Cancer Hospital, priority 2022, published 2025).

What was measured:
[1] = tested on: SUM159 cells engineered with dox inducible expression of HORMAD1; test: Colony formation (surviving fraction) with ART558 in SUM159 cells with dox inducible expression of HORMAD1; assay type: cell-based, human
Protocol: (§1) RPE1 (FIGS. 16-17, A) or SUM159 (FIGS. 16-17, B) cells engineered with dox inducible expression of HORMAD1 were seeded at colony forming density in the presence or absence of dox and treated with the indicated doses of ART558. Colonies were counted and surviving fractions for each condition were calculated.

[2] = tested on: RPE1 cells engineered with dox inducible expression of HORMAD1; test: Colony formation (surviving fraction) with ART558 in RPE1 cells with dox inducible expression of HORMAD1; assay type: cell-based, human
Protocol: as §1

[3] = tested on: SUM159 cells with dox-inducible expression of HORMAD1; test: LY2606368 sensitivity in SUM159 cells with dox-inducible HORMAD1 (FIG. 18D); assay type: cell-based, human; conditions: +DOX vs -DOX
[4] = tested on: Breast cancer cell lines characterized as HORMAD1 negative and positive; conditions: data from depmap.org, FIG. 18C; cited from earlier work
[5] = tested on: HORMAD1 negative RPE-1 cells engineered to have doxycycline inducible expression of HORMAD1; test: Novobiocin sensitivity, 10 days, cell viability by cell titre glow; assay type: cell-based, human
Protocol: HORMAD1 negative RPE-1 cells engineered to have doxycycline inducible expression of HORMAD1 were then assessed for their sensitivity to the POLQ inhibitor Novobiocin. Cells were treated with the indicated doses of Novobiocin for 10 days and cell viability assessed by cell titre glow.

[6] = tested on: SUM149 cells with dox-inducible expression of HORMAD1; test: CHK1 inhibitor sensitivity, colony forming density, Cell Titer Glow, surviving fraction; assay type: cell-based, human; conditions: FIGS. 18A, B and D

Cc1cccc(N(C)C(=O)[C@@H]2[C@H](O)CCN2c2nc(C)cc(C(F)(F)F)c2C#N)c1 [ART558]
sensitivity to inhibitor, HORMAD1 expressing vs uninduced controls ([1]; SUM159, +DOX vs uninduced): significantly increased sensitivity
cell viability (surviving fraction of colonies) ([1]; SUM159 cells expressing HORMAD1 (+DOX), 10 and 20 μM ART558): significant reduction in cell viability
sensitivity to inhibitor, +DOX vs -DOX ([2]; RPE1, dox-induced expression of HORMAD1, FIG. 16A): increases sensitivity
cell viability (surviving fraction of colonies) ([2]; RPE1 cells expressing HORMAD1 (+DOX), 5, 10, and 20 μM ART558): significant reduction in cell viability
cell viability (surviving fraction of colonies) ([2]; RPE1 cells in the absence of the inducer (-DOX), below 20 μM ART558): no reduction in cell viability

COc1cccc(OCCCN)c1-c1cc(Nc2cnc(C#N)cn2)n[nH]1 [LY2606368]
sensitivity to CHK1 inhibitor upon induction of HORMAD1 expression [3]: increased sensitivity
mean area under the curve (AUC), HORMAD1 positive vs HORMAD1 negative group [4]: lower mean AUC

CO[C@@H]1[C@@H](OC(N)=O)[C@@H](O)[C@H](Oc2ccc3c(O)c(NC(=O)c4ccc(O)c(CC=C(C)C)c4)c(=O)oc3c2C)OC1(C)C [Novobiocin]
sensitivity to inhibitor, HORMAD1 expressing vs uninduced controls ([5]; +DOX vs uninduced, difference dose-dependent): significantly increased sensitivity
colony survival ([5]; Novobiocin at concentrations above 50 μM, 10 days): significant and dose-dependent reduction in colony survival

Cn1cc(-c2[nH]c3cc(NC(=O)[C@H](N)C4CCCCC4)cc4c3c2C=NNC4=O)cn1 [PF47736]
sensitivity to CHK1 inhibitor, HORMAD1 expressing vs uninduced controls [6]: significantly increased sensitivity

C[C@H](CN(C)C)Oc1nc(Nc2cc3cccc(Cl)c3cn2)cnc1C#N [SAR020106]
sensitivity to CHK1 inhibitor, HORMAD1 expressing vs uninduced controls [6]: significantly increased sensitivity
